Assay results from ChEMBL document CHEMBL5465560, “Selectivity Literature for EUbOPEN Chemogenomic Library” (2024).
Each block holds one molecule with its values, some of them ahead of it.

Experiments:
[1] = biological target: T1, Serine/threonine-protein kinase D1 (Homo sapiens) (UniProt Q15139); conditions: at 10 µM
T1 sequence (whole entry): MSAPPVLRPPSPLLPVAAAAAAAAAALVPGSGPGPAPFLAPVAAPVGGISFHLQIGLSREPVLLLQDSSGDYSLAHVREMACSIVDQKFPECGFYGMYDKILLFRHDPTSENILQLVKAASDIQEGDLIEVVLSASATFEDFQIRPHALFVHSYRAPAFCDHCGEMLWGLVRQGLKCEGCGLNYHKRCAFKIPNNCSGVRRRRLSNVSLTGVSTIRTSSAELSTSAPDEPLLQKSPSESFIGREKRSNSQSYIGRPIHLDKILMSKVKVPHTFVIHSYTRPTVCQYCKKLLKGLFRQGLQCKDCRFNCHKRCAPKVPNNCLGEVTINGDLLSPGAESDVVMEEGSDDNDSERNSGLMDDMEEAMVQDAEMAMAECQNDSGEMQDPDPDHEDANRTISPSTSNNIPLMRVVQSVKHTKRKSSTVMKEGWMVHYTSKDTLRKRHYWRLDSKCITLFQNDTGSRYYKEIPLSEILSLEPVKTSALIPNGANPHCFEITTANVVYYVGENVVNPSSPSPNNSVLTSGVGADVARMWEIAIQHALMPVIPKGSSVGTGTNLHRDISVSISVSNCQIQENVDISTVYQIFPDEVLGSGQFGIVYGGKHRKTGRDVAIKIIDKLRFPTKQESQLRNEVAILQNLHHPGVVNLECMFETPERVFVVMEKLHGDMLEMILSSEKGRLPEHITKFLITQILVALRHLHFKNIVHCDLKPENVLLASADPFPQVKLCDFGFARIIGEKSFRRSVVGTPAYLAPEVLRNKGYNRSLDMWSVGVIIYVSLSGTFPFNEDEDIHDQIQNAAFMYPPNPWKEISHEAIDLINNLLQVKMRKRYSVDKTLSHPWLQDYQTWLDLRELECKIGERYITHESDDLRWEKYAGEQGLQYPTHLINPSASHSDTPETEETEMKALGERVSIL

[2] = biological target: Fibroblast growth factor receptor 3 (Homo sapiens, UniProt P22607); test: Selectivity interaction (Kinase panel (DSF assay)) EUB0001559a FGFR3
[3] = biological target: Mitotic checkpoint serine/threonine-protein kinase BUB1 (Homo sapiens, UniProt O43683); test: Selectivity interaction (KinomeScan (DiscoverX)) EUB0001619a BUB1; conditions: at 1 µM
[4] = biological target: Phosphatidylinositol 4-kinase beta (Homo sapiens, UniProt Q9UBF8); conditions: at 10 µM
Chain of Phosphatidylinositol 4-kinase beta (Q9UBF8 2-816 limits assumed): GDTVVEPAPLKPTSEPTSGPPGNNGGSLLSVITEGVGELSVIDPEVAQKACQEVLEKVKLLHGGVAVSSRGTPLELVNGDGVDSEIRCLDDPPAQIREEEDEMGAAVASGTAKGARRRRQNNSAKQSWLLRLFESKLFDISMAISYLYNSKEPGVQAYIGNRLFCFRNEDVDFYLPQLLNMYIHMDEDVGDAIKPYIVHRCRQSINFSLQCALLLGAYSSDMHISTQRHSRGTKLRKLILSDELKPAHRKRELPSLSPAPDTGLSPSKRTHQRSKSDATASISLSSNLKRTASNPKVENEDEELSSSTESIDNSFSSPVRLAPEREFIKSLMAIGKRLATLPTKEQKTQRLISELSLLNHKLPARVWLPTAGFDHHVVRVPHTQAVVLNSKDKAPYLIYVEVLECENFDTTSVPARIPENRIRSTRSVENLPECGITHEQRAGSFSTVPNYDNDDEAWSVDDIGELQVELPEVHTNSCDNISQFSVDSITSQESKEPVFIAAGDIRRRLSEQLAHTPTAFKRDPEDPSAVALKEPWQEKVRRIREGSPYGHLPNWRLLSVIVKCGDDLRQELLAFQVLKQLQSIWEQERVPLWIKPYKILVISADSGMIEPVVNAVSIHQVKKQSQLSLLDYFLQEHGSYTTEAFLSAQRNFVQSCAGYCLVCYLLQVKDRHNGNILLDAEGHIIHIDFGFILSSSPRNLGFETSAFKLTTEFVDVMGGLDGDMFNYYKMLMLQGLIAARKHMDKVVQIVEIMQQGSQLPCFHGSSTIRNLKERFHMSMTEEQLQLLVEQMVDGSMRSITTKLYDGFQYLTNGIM

[5] = biological target: T2, Myotonin-protein kinase (Homo sapiens) (UniProt Q09013); test: Selectivity interaction (Kinase panel (Invitrogen)) EUB0000639a DMPK; conditions: at 200 nM
T2 sequence (whole entry): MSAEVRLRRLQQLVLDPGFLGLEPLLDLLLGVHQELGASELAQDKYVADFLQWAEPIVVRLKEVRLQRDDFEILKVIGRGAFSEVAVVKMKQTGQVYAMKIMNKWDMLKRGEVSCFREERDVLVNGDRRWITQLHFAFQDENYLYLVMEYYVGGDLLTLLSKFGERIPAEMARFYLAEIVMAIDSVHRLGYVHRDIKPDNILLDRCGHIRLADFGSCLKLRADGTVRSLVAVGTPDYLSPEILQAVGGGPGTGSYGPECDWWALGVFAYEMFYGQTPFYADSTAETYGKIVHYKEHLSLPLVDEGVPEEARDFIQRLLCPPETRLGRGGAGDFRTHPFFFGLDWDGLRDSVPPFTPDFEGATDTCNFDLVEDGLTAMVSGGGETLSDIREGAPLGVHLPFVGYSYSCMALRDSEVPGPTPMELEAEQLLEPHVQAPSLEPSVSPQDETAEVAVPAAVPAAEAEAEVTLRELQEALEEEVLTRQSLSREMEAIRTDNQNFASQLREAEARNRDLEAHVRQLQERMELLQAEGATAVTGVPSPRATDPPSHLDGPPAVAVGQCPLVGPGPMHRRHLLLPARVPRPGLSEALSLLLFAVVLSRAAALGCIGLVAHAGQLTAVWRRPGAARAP

[6] = tested on: Hepatocyte growth factor receptor (Homo sapiens), P08581 [Y1235D]; test: (§1) Selectivity interaction (ProQinase) EUB0000171b MET
Chain of Hepatocyte growth factor receptor (Homo sapiens), P08581 [Y1235D] (P08581 whole entry Y1235D): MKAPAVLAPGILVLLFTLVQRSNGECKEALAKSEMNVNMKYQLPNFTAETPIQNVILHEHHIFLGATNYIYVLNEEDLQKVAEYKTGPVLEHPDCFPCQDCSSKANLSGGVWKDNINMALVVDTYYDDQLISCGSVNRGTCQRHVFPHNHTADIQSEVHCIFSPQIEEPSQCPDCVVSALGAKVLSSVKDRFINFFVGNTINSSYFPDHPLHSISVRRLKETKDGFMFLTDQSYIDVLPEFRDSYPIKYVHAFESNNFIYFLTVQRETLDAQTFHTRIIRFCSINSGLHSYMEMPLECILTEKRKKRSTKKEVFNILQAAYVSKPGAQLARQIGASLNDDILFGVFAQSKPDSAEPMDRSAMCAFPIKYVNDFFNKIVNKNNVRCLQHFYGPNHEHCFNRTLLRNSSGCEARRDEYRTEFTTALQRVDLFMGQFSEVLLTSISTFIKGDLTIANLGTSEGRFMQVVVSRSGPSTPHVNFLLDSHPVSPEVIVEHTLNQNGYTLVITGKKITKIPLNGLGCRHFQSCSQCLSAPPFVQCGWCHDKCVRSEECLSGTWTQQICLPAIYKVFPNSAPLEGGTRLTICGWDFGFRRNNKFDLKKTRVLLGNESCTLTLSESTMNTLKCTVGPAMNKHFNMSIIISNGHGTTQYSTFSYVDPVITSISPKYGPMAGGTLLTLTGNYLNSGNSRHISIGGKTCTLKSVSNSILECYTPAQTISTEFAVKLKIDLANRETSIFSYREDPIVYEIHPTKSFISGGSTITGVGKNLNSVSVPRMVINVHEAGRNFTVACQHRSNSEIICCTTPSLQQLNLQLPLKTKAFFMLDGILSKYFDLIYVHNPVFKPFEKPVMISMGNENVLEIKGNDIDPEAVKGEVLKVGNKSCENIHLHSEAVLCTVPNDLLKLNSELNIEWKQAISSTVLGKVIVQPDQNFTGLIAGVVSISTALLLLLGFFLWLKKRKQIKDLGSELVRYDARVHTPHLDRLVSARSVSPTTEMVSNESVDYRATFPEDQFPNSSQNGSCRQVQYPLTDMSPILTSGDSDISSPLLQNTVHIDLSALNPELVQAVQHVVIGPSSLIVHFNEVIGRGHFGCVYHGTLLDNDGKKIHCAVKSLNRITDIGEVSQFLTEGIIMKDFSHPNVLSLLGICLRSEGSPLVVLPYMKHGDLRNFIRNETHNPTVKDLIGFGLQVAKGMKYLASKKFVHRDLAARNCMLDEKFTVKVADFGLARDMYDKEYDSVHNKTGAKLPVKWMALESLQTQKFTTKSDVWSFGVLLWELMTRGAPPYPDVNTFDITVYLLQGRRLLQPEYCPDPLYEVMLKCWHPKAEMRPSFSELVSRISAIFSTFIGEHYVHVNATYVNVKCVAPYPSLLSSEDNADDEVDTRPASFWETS

[7] = tested on: Hepatocyte growth factor receptor (Homo sapiens), P08581 [M1250T]; test: as §1
[8] = tested on: Hepatocyte growth factor receptor (Homo sapiens), P08581 [D1228H]; test: as §1
[9] = tested on: Hepatocyte growth factor receptor (Homo sapiens), P08581 [Y1230C]; test: as §1
[10] = biological target: Hepatocyte growth factor receptor (Homo sapiens, UniProt P08581); test: as §1
Chain of Hepatocyte growth factor receptor (P08581 whole entry): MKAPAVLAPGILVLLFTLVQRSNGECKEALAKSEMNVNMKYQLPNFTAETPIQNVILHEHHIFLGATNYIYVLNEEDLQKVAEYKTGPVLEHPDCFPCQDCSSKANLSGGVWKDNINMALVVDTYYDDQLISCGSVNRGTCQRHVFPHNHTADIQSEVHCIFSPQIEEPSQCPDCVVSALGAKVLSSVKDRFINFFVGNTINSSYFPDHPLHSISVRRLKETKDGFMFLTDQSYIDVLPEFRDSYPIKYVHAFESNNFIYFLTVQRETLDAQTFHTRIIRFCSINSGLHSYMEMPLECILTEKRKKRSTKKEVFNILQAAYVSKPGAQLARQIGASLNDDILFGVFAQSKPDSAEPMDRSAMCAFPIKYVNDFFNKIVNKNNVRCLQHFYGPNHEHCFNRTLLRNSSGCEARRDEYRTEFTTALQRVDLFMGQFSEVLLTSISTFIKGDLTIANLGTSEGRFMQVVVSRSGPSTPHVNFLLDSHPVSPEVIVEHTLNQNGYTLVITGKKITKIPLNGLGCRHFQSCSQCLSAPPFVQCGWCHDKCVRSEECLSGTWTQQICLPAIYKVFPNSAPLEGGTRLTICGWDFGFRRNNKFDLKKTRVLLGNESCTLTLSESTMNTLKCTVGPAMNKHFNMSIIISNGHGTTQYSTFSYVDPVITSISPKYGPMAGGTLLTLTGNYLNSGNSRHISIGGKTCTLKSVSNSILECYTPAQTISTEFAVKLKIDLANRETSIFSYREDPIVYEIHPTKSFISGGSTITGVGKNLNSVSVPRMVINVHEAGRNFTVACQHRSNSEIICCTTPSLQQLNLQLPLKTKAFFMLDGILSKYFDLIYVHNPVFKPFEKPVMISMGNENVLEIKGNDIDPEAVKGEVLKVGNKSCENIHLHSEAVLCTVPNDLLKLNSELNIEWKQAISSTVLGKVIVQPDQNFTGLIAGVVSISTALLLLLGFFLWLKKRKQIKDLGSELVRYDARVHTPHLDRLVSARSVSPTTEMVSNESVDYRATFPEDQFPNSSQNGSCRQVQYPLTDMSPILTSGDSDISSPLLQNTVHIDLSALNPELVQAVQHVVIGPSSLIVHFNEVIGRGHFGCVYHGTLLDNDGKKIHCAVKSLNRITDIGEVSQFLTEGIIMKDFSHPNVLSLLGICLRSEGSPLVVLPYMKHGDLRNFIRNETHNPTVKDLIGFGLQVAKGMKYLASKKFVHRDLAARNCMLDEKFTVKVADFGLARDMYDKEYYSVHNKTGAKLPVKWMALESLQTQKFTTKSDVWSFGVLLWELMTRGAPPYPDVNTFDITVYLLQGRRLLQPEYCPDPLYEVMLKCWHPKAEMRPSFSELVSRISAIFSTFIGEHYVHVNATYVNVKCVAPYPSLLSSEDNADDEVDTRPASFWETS

[11] = tested on: Hepatocyte growth factor receptor (Homo sapiens), P08581 [Y1230D]; test: as §1
[12] = tested on: Hepatocyte growth factor receptor (Homo sapiens), P08581 [Y1230A]; test: as §1
[13] = tested on: Hepatocyte growth factor receptor (Homo sapiens), P08581 [F1200I]; test: as §1
Chain of Hepatocyte growth factor receptor (Homo sapiens), P08581 [F1200I] (P08581 whole entry F1200I): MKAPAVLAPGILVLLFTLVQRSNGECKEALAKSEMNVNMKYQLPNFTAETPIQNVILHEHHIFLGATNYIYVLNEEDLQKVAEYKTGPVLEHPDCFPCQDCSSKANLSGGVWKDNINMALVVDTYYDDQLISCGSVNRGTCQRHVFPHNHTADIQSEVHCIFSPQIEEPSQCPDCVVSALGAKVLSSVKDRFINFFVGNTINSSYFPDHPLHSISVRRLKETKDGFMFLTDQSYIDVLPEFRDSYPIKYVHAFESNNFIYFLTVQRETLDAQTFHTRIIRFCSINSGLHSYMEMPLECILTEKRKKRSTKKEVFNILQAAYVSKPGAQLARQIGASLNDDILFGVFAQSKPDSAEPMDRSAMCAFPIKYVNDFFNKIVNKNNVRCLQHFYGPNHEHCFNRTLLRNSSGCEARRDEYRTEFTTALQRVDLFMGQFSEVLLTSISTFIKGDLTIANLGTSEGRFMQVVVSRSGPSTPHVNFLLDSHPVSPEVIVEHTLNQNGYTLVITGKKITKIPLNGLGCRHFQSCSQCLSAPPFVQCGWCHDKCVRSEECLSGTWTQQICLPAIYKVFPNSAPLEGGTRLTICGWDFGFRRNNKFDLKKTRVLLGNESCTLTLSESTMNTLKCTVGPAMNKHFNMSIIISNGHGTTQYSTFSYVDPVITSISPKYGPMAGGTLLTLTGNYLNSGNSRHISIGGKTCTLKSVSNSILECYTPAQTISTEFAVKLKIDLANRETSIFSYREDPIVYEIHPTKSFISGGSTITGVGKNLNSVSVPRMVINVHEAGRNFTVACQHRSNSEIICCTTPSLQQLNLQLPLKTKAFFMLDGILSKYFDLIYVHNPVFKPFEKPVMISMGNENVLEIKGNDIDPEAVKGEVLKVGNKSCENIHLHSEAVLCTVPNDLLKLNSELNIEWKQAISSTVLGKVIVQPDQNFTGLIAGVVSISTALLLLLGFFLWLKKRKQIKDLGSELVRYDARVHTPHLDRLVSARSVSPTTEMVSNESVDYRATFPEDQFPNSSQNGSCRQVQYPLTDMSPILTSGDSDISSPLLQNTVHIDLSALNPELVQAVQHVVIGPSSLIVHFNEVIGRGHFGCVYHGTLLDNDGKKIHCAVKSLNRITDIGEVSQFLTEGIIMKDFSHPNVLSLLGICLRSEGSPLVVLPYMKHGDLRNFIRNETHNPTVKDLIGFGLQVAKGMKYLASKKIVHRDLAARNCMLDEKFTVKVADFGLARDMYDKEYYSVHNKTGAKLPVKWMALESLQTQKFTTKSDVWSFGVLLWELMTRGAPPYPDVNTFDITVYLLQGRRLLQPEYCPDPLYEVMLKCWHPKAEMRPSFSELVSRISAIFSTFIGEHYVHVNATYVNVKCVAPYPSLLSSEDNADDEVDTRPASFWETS

[14] = tested on: Hepatocyte growth factor receptor (Homo sapiens), P08581 [Y1230H]; test: as §1
[15] = tested on: Hepatocyte growth factor receptor (Homo sapiens), P08581 [D1228N]; test: as §1
[16] = biological target: T3, TGF-beta receptor type-1 (Homo sapiens) (UniProt P36897); test: Selectivity interaction (LanthaScreen Eu Kinase Binding Assay) EUB0001632a TGFBR1; conditions: at 10 µM
T3 sequence (whole entry): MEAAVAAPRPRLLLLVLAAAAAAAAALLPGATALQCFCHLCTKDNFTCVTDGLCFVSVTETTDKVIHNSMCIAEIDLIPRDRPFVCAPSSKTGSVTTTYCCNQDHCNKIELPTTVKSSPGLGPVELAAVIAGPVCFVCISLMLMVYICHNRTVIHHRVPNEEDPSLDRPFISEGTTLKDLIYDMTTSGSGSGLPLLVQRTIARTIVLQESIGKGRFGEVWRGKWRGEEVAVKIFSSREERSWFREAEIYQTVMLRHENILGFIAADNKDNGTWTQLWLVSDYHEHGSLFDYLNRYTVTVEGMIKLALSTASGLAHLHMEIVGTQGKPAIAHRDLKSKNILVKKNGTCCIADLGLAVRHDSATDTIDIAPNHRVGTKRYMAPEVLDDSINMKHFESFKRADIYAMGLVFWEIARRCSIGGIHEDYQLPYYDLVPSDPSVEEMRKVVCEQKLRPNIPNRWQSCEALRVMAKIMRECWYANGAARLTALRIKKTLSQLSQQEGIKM

[17] = biological target: Receptor tyrosine-protein kinase erbB-4 (Homo sapiens, UniProt Q15303); test: Selectivity interaction (Kinase panel (Z-LYTE Assay)) EUB0001632a ERBB4; conditions: at 10 µM

Compound: CCN(CC)CCCCNc1ncc2cc(-c3cc(OC)cc(OC)c3)c(NC(=O)NC(C)(C)C)nc2n1
% of control [1]: 100%

Compound: N#Cc1cccc(-c2c[nH]c3ncnc(N4CCOCC4)c23)c1
% of control [3]: 86%

Compound: Cc1cc([C@@H](C)Nc2ccccc2C(=O)O)c2nc(N3CCOCC3)cc(=O)n2c1 [AZD-6482]
% of control [4]: 100%

Compound: C=CC(=O)Nc1cccc(C(=O)Nc2ccc(Nc3cc(-c4[nH]c(SC)nc4C)ccn3)cc2)c1
% of control ([6]; at 1 µM): 105%
% of control ([6]; at 5 µM): 86%
% of control ([7]; at 1 µM): 88%
% of control ([7]; at 5 µM): 65%
% of control ([8]; at 1 µM): 76%
% of control ([8]; at 5 µM): 65%
% of control ([9]; at 1 µM): 90%
% of control ([9]; at 5 µM): 76%
% of control ([10]; at 1 µM): 93%
% of control ([10]; at 5 µM): 78%
% of control ([11]; at 1 µM): 88%
% of control ([11]; at 5 µM): 73%
% of control ([12]; at 1 µM): 97%
% of control ([12]; at 5 µM): 85%
% of control ([13]; at 1 µM): 81%
% of control ([13]; at 5 µM): 59%
% of control ([14]; at 1 µM): 92%
% of control ([14]; at 5 µM): 72%
% of control ([15]; at 1 µM): 89%
% of control ([15]; at 5 µM): 74%

Results, then the molecule that gave them:

dTM [2]: -0.3 K
Compound: CN(C(=O)c1cnn2cccnc12)c1cc2c(cc1N1CCOCC1)C(=O)N(C[C@@H](F)C(C)(C)O)C2

% of inhibition [5]: -0.603%
Compound: CC[C@@H]1[C@H](F)C(=O)N[C@@H]1COc1nccc2cc(C(N)=O)c(OC)cc12 [ZIMLOVISERTIB]

% of inhibition [16]: 0.691%
% of control [17]: -13.3%
Compound: Cn1cc(-n2cnc3c(NCc4nc5cc(Cl)c(Cl)cc5[nH]4)nc(N4CCOCC4)nc32)cn1
